The values that follow come from patent US8030071B2, “Restoration of cholesterol independence and its use as a selectable marker in NS0 cell culture” (priority 2005, dated 2011).

Assay [1] relates to NS0 cells. Nature of the assay: Growth kinetics of NS0 cells in tissue culture flasks with sterol supplement. The assay is classed as cell-based, mouse. As to conditions: 5.0 μg/ml sterol, 4 mg/ml fatty acid-free BSA; for growth of NS0 cells supported: tissue culture flasks; for maximum cell density: after 70 hrs in culture. As for the experimental part:
The medium in all four flasks was supplemented with 4 mg/ml fatty acid-free BSA.
Cells and cell culture. NS0 and NS0_r, the cholesterol independent revertant, were obtained from Pfizer, Inc. (St. Louis, Mo.) and have been described previously (Seth et al., Biotechnol Bioeng, 90:552-67, 2005). Growth response of NS0 cells to various cholesterol biosynthesis pathway precursors and intermediates was studied in CD Hybridoma medium (Invitrogen, Carlsbad, Calif., USA) without cholesterol-lipid concentrate. […] Each well containing 1.5 ml precursor-supplemented medium was seeded with 2×10^5 cells/ml. NS0 cells cultured in the presence of cholesterol served as the positive control. Different intermediates were dissolved in 100% ethanol and added to the culture medium along with 4 mg/ml fatty acid-free BSA (Sigma, St. Louis, Mo., USA). […] Citric acid anhydrous, mevalonolactone, squalene, lanosterol, lathosterol, 7-dehydrocholesterol and cholesterol powder were purchased from Sigma (St. Louis, Mo., USA). All test conditions were performed in duplicate. The medium was supplemented with 4 mg/ml fatty acid-free BSA. Presence of BSA facilitates uptake of the sterol precursors (Sato et al., Mol Biol Med, 2, 121-34:1984).
In order to verify the block between lanosterol and lathosterol in the cholesterol biosynthetic pathway, growth kinetics of NS0 cells in the presence of lanosterol (5.0 μg/ml), lathosterol (5.0 μg/ml) and cholesterol (5.0 μg/ml) were determined. Cells were also grown in basal medium supplemented with fatty acid-free BSA only (FIG. 2b). […] Cells attained a maximum cell density of 4×10^6 cells/ml after 70 hrs in culture with lathosterol, compared to 3×10^6 cells/ml in medium supplemented with cholesterol. These observations were consistent over repeated cultures. The results support the notion that the block between lanosterol and lathosterol in the biosynthesis of cholesterol in NS0 is at least partly responsible for cholesterol auxotrophy in this cell line.

The subject of assay [2] is NS0 cells. Briefly: Growth response of NS0 cells in 24-well plates to cholesterol biosynthesis precursors/intermediates. The assay is classed as cell-based, mouse. Particulars: cholesterol-free CD Hybridoma medium, 4 mg/ml fatty acid-free BSA, three concentrations per precursor.
Experimental: Cells and cell culture. […] Growth response of NS0 cells to various cholesterol biosynthesis pathway precursors and intermediates was studied in CD Hybridoma medium (Invitrogen, Carlsbad, Calif., USA) without cholesterol-lipid concentrate. […] Each well containing 1.5 ml precursor-supplemented medium was seeded with 2×10^5 cells/ml. NS0 cells cultured in the presence of cholesterol served as the positive control. Different intermediates were dissolved in 100% ethanol and added to the culture medium along with 4 mg/ml fatty acid-free BSA (Sigma, St. Louis, Mo., USA). […] All test conditions were performed in duplicate. The medium was supplemented with 4 mg/ml fatty acid-free BSA.
For the next assay, the system named is Hsd17b7. Nature of the assay: Hsd17b7 transcription after 5-azacytidine treatment (real-time PCR). As to conditions: NS0 cells treated with 5-azacytidine. The format is cell-based, mouse.
Assay [3] deals with NS0 cells. Briefly: 5-azacytidine treatment and limiting dilution plating for cholesterol independent clones. The format is cell-based, mouse. On the procedure:
Treatment with 5-azacytidine (5azaC) and isolation of cholesterol independent clones. NS0 cells at 200,000 cells/ml were treated with 5azaC (1 μM and 5 μM) in tissue culture flasks. After 48 hrs, the cells were washed and limiting dilution plating was carried out in 10 96-well plates at a dilution of 2,000 cells/well using CD Hybridoma medium without cholesterol supplement. Untreated NS0 cells were also plated in cholesterol-free medium as a control for background cholesterol independent variants in the cell population. The plates were incubated at 5% CO2, 37° C. and saturated humidity for 1-2 weeks.
5azaC treated cells were aliquoted into 96-well cell culture plates containing cholesterol-free medium. […] Single cell colonies were isolated from the 96-well culture plates and expanded to tissue culture flasks for further characterization.

The next assay relates to other systems. As to conditions: baseline spontaneous reactivation frequency of 10^−5 or less (Holliday et al.); cited from earlier work.

SMILES strings stand for the structures.

Experimental for Hsd17b7: Reverse Transcription and Real-time comparative quantitative PCR. Total RNA was extracted from cells in exponential growth phase using the RNeasy Mini Kit (Qiagen, Valencia, Calif., USA), followed by reverse transcription with Superscript™ II RNase H^− Reverse Transcriptase (Invitrogen). For real-time comparative PCR analysis, samples were prepared using QuantiTect SYBR Green PCR kit (Qiagen) and reactions run on ABI 7700 (Applied Biosystems, Foster City, Calif., USA). Samples were analyzed in duplicates and β-actin was used as the normalization message. The fold change was calculated using the comparative CT method.

With `CC(C)=CCC[C@@H](C)[C@H]1CC[C@@]2(C)C3=C(CC[C@]12C)[C@@]1(C)CC[C@H](O)C(C)(C)[C@@H]1CC3` [lanosterol], the “growth of NS0 cells supported” value with NS0 cells [1] is “unable to support the growth of NS0 cells”. In addition, the “growth of NS0 cells supported by precursor/intermediate” value (shortened to “growth … by precursor/intermediate”) in the assay with NS0 cells [2] is “Growth was not supported”.
Turning to `CC(C)CCC[C@@H](C)[C@H]1CC[C@H]2C3=CC[C@H]4C[C@@H](O)CC[C@]4(C)[C@H]3CC[C@]12C` [lathosterol], in the assay with NS0 cells [1], the maximum cell density is listed as 4×10^6 cells/ml and the “growth of NS0 cells supported” value was “effective in promoting the growth of NS0 cells”. The “growth … by precursor/intermediate” value with NS0 cells [2] is listed as “able to support the growth of cells”.
For `Nc1ncn([C@@H]2O[C@H](CO)[C@@H](O)[C@H]2O)c(=O)n1` [5azaC, 5-azacytidine], in the assay on Hsd17b7, the “transcriptional repression of Hsd17b7” value is listed as “relieved”. In addition, the “reversion rate to cholesterol independence” value with NS0 cells [3] (1 μM 5azaC) is recorded as “less than 1×10^−6”. Moreover, the “Survival frequency of wells in a 96-well plate culture” value with NS0 cells [3] (5 μM 5azaC, 2,000 cells/well, cholesterol-free medium) is ~80 % of wells. Also, the “cholesterol revertants after exposure” value in the assay on NS0 cells [3] (5 μM 5azaC, 48 hrs, then cholesterol-free medium) is “many cholesterol revertants”. For the same molecule, in the assay with other systems, the reactivated cells was 10-30%.
Regarding `CC(C)=CCC/C(C)=C/CC/C(C)=C/CC/C=C(\C)CC/C=C(\C)CCC=C(C)C` [squalene], the “growth … by precursor/intermediate” value in the assay with NS0 cells [2] was “Growth was not supported”.
Regarding `CC(C)CCC[C@@H](C)[C@H]1CC[C@H]2[C@@H]3CC=C4C[C@@H](O)CC[C@]4(C)[C@H]3CC[C@]12C` [cholesterol], the maximum cell density in the assay on NS0 cells [1] is 3×10^6 cells/ml.
Consider `C[C@@]1(O)CCOC(=O)C1` [mevalonolactone], for which, in the assay on NS0 cells [2], the “growth … by precursor/intermediate” value is “Growth was not supported”.
